Source: patent US6017877A, “Method and composition for treating thrombosis” (priority 1994, dated 2000)
Several values for one entry are separate records, joined by “and”; a condition that tells them apart may be missing. Identical values can stand only once. Like-named read-outs stand apart in the source and are kept apart here.

Tests used:
platelets [1] = assay: Platelet aggregation assay of Example XI; type: cell-based; settings: for reactivity relative to 8X in platelet aggregation: fold more reactive than 8X
Method: (§1) Platelet aggregation was assessed using the method of Born, Nature 194:927-929 (1962), incorporated herein by reference. Briefly, the change in light transmission was measured through a stirred suspension of platelets in an aggregometer (Model 400 VS, Chrono-Log, Havertown, Pa., USA). […] In studies using thrombin, the PRP was gel-filtered on Sepharose 2B in divalent ion-free Tyrode's solution containing 2% BSA. For all studies, the reference standard was platelet-poor plasma, which was obtained by centrifuging PRP at 1000× g for 5 min.
(§2) (Platelet count was determined with the aid of a hemacytometer.) Peptides and stimulants were added to these suspensions in 1% dilutions. The PRP and gel-filtered platelets were used within three hours from the time of blood collection.

[2] = molecular target: T1, vitronectin receptor (Vn-R) (Homo sapiens, UniProt P05106+P06756); assay: VnR binding, ELISA or liposome attachment assay (Table I)
T1 construct: from tissue; host or cells: human placenta
T1 sequence (P06756 31-889 limits assumed): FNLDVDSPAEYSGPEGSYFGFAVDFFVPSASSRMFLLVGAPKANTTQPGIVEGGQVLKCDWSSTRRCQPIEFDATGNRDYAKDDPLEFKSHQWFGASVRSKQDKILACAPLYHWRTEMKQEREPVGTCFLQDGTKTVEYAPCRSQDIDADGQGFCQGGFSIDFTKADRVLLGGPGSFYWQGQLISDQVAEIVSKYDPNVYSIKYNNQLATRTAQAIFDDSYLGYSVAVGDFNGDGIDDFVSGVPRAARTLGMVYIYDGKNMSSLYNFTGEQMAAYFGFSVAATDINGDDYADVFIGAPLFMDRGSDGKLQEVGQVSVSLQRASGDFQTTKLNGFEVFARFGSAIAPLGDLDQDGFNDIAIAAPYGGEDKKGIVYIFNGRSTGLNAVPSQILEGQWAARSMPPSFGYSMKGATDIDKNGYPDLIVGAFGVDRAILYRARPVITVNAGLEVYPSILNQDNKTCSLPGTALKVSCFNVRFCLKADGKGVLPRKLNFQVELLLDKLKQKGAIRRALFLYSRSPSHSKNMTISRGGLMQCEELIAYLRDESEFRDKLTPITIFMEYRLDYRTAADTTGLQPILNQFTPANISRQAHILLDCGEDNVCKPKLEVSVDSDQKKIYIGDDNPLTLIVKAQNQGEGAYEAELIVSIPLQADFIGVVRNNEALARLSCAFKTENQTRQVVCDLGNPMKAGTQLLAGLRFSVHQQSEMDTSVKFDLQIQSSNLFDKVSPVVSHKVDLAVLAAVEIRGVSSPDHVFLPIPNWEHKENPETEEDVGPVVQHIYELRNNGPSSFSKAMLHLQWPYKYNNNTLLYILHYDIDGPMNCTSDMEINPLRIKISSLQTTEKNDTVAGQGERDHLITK
T1 sequence (P06756 891-1048 partner limits assumed): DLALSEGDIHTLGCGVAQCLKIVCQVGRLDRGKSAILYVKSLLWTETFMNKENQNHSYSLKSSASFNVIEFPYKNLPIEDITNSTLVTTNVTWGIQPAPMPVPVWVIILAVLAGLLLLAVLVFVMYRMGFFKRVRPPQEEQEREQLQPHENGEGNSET
T1 sequence (P05106 27-788): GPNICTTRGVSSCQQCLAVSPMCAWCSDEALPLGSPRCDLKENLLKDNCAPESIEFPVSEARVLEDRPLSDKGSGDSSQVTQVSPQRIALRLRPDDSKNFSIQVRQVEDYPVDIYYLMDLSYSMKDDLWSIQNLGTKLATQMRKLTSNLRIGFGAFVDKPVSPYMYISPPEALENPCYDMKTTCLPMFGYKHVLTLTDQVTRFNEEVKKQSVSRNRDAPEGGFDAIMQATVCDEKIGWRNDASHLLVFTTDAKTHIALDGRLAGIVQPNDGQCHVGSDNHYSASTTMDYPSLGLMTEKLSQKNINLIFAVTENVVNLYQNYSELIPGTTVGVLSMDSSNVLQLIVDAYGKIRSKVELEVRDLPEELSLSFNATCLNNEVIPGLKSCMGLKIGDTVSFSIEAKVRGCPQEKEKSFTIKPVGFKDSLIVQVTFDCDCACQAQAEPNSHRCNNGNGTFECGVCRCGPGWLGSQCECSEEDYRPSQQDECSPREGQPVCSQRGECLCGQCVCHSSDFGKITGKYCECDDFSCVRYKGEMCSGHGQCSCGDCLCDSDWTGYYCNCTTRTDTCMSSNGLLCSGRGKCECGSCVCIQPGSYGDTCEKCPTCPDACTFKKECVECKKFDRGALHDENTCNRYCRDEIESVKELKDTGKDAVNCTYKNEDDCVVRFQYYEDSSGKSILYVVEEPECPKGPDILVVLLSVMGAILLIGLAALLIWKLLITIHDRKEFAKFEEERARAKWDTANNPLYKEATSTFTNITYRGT
Method: Except where stated, all procedures were carried out at 4° C. The peptide column was washed with three volumes of Tris-buffered saline (TBS) containing 1 mM Ca^2+ and Ca^2+ and 25 mM OG and then with TBS containing 1 mM 25 mM octyl thioglucoside (OTG) at room temperature. […] Finally, Ca^2+ and Mg^+2 were added to eluted fractions to achieve final concentrations of 1 mM for both ions.
Maxisorp microtiter plates were coated with 2 μg/ml human vitronectin dissolved in PBS (50 ml/well) and stored overnight at 4° C. The plates were washed two times with PBS-0.05% Tween-20 (wash buffer) and blocked by incubating with about 150 μl/well of assay buffer (1%, BSA (RIA grade or better) in 50 mM Tris-HCl, 100 mM NaCl, 1 mM MgCl2, CaCl2, MnCl2 pH 7.4) for 60 minutes. Dilutions of standards were prepared and putative inhibitors (Table 2) were dissolved in assay buffer. The blocked plates were emptied and 20 μl/well of inhibitor or standard solution was added to each well. Twenty-five μl of a 30 μg/ml solution of purified αV β3 in assay buffer was pipetted into the coated plate. The final concentration of receptor in the assay well was about 15 μg/ml. The plate was incubated on a shaker for 60 minutes. Meanwhile, for each microtite plate, 6 ml buffer solution containing 1.5 μg/ml of mouse monoclonal antibody specific for β3 is prepared. To this solution was added the secondary antibody which is anti-mouse-Fc-HRP antibody conjugate. For example, for one plate, 6 ml of a 1.5 μg/ml mouse Mab solution was prepared to which was added 1 μl of anti-mouse-Fc-HRP antibody stock, (this represents a 1:6000 dilution of the antibody--HRP conjugate). This mixture was allowed to incubate during the receptor-inhibitor incubation. The assay plates were washed 4 times with PBS-Tween and 50 μl/well of the antibody mixture was then pipetted into the plate for a 60 minute incubation. The plate was washed 4 times and the color reaction was developed with 50 μl/well of 0.67 mg/ml o-phenyldiamine in PBS containing 0.012% H2 O2. Alternatively, 16 mM citric acid, 50 mM Na2 PO4 at pH 5.0 can be used as a substrate buffer. The reaction is stopped with 50 μl/well 1 M H2 SO4. The plates were read at 492-405 nm and the data analyzed by four-parameters fit.
Briefly, 1:4 mixture of labelled and unlabelled phosphatidylcholine (PC) liposomes was dissolved under nitrogen and diluted with an equal volume of purified receptor (purified as described in Example II) to achieve a fixed predetermined receptor-liposome concentration ratio. This mixture was then dialyzed overnight at 4° C. in phosphate buffered saline (PBS) containing 1 mM Ca^2+. An aliquot of the dialyzed sample was counted to assess radioactive content; the receptor-liposome mixture was then diluted to obtain a set radioactivity per unit volume. […]

GP IIb/IIIa = GP IIb/IIIa (Homo sapiens, UniProt P05106+P08514); assay: Inhibition of binding of various ligands to GP IIb/IIIa; settings: fibrinogen vs fibronectin and vitronectin
Chain of GP IIb/IIIa (P08514 32-887 limits assumed): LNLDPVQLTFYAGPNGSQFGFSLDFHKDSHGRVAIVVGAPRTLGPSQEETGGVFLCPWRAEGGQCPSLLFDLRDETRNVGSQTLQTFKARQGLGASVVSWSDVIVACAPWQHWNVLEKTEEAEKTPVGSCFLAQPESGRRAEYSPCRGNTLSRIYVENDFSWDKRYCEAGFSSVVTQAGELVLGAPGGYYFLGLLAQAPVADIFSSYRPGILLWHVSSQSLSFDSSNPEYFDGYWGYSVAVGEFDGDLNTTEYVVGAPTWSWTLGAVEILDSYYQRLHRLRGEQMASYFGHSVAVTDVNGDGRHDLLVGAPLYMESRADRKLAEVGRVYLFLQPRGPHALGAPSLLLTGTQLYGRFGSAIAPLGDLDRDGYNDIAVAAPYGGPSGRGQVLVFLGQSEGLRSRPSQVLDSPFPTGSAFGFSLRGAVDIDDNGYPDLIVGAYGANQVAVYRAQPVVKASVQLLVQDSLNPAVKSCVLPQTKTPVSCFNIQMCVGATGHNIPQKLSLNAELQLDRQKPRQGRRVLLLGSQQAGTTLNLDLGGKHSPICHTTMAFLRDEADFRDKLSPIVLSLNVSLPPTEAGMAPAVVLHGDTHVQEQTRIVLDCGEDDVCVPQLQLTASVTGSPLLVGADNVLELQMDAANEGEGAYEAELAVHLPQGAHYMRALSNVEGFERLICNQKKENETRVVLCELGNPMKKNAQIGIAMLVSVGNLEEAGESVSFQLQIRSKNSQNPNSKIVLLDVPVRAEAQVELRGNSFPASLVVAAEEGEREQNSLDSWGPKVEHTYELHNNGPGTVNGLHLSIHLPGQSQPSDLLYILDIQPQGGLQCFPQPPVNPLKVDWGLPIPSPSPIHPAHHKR
Chain of GP IIb/IIIa (P08514 891-1039 partner limits assumed): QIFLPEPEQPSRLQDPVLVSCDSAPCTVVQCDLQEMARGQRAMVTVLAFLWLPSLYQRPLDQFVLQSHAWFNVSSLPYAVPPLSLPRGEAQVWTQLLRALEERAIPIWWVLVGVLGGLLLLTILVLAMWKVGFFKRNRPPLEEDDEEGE
Chain of GP IIb/IIIa (P05106 27-788): as the sequence (P05106 27-788) above

platelets [3] = assay: Thrombin-stimulated platelet aggregation (Table I); type: cell-based, human; settings: thrombin 2 U/ml, gel-filtered platelets
Method: as §1, with “Platelet aggregation assays were performed following the methods of this Example or those of Example IX.G. Platelet” for “Platelet”
as §2, with “All aggregation studies were performed at 37° C. with a constantly stirred suspension of 3×10^8 platelets/ml. (Platelet” for “(Platelet”
Peptide anti-aggregation potencies were determined from dose-responsive curves for the inhibition of the maximum aggregation responses stimulated by physiologic doses of ADP (10 μm) and thrombin (2 U/ml).

platelets [4] = type: cell-based, human; settings: ADP 10 μm, platelet-rich plasma; read-out: ADP-Stimulated Aggregation (IC50)
Method: All aggregation studies were performed at 37° C. with a constantly stirred suspension of 3×10^8 platelets/ml. (Platelet count was determined with the aid of a hemacytometer.) Peptides and stimulants were added to these suspensions in 1% dilutions. The PRP and gel-filtered platelets were used within three hours from the time of blood collection.

coronary thrombosis = assay: Electrically induced canine coronary thrombosis, time to full occlusion; type: in vivo; settings: dog
Method: Male mongrel dogs weighing 14 to 20 kg were selected based on proper aggregation of their platelets in response to arachidonic acid, collagen, and adenosine disphosphate (ADP) and based on similar weights and hemodynamic properties.
Before surgery, the animals were anesthetized with sodium pentobarbital (30 mg/kg, i.v.) and then intubated and ventilated on room air with positive pressure using a respirator (Harvard Apparatus, S. Natick, Mass.) at a volume of 30 ml/kg and a frequency of 12 breaths/min. Surgery, performed under aseptic conditions, was begun with the placement of cannulae into the left carotid artery and jugular vein for monitoring arterial blood pressure (Statham P23 pressure transducer, Gould, Inc., Cardiovascular Products, Oxnard, Calif.) and administering intravenous fluids.
The heart was exposed via a left thoracotomy through the 5th intercostal space. […]
Animals were randomly assigned to two treatment groups: vehicle control (i.e., normal saline) or RGD peptides at various concentrations. […] The anti-thrombotic effects of the peptides were monitored until 30 minutes after the occurrence of a persistent, occlusive thrombus or five hours after the initiation of electrical stimulation (whichever resulted first). […]
Coronary thrombosis was quantified as the time to full occlusion. […]

platelets [5] = assay: Ex vivo platelet aggregation in canine coronary thrombosis model; settings: dog; for reduction of ex vivo aggregation relative to control levels: 3 mg/kg; for ex vivo platelet aggregation by all three stimuli: 10 mg/kg
Method: For all ex vivo studies (see FIG. 3), control aggregation values were standardized to the percentages of light transmission observed in PRP and PPP samples (0% and 100%, respectively).
Animals were randomly assigned to two treatment groups: vehicle control (i.e., normal saline) or RGD peptides at various concentrations. Peptides were administered intra-atrially in both bolus and continuous injections. Each bolus injection consisted of 0.5 to 10 mg/kg and was administered 15 minutes before application of the current. A continuous infusion of the same peptide was then started immediately after completion of this initial injection. Animals received a 25 μg/kg/min to 200 μg/kg/min infusion. The anti-thrombotic effects of the peptides were monitored until 30 minutes after the occurrence of a persistent, occlusive thrombus or five hours after the initiation of electrical stimulation (whichever resulted first). If an occlusive thrombus had not developed within four hours after the initiation of current, the peptide infusion was stopped.
Platelet counts and ex vivo aggregation studies were performed one hour before and 1, 3, and 5 hours after application of anodal direct current.
Platelet aggregation was also determined ex vivo at one, three, and five hours after current application. For these studies, arachidonic acid, or collagen was again used to stimulate the platelets.

[6] = Rabbit peripheral blood flow (PBF), laser dopler flow probe; type: in vivo; settings: time 10 min, bolus dose printed with drug
Method: In an alternative series of experiments, (Table 2) PBF was measured quantitatively with a laser dopler flow probe (Perimed). The probe was positioned securely over the vascular bed of one ear and flow monitored continuously. Each inhibitor was infused and CBT measured in the opposing ear. No arterial catheter was placed for blood sampling, consequently XPA was measured in these animals.

platelets [7] = assay: Baboon ex vivo platelet aggregation (ADP); type: in vivo; settings: baboon animal 2, PRP, ADP 10 μm
Method: At one- and two-hour time points, template bleeding times were measured, and blood samples were drawn to assess the hematology aggregation studies. Platelet aggregation studies were performed as described in Example V using ADP as the stimulus.
In addition, platelet aggregation studies were conducted on PRP derived from the second animal. Whole blood was drawn at three time points (0, 1 and 2 hours) of both control and experimental shunts.

[8] = tested on: Gore-tex vascular graft thrombosis; assay: Platelet and fibrinogen uptake by Gore-Tex grafts in baboon ex vivo shunt; settings: baboon animal 2, 10 mg/kg bolus IV + 10 mg/kg/hr infusion for two hours
Method: Adult male baboons (weighing 16 to 25 kg) were used in these studies. These were sedated with ketamine hydrochloride (200 to 250 mg intramuscular injection) and maintained under anesthesia with sodium pentobarbital (50 to 75 mg administered intravenously as necessary).
Twenty-four hours before the ex vivo shunt was established, platelets were isolated from 500 ml of blood from the test animal and labelled with ca. 500 microcuries of indium-111 oxine (Medi+Physics, Emeryville, Calif.), which irreversibly and specifically binds to platelets with an efficiency of 50%. Immediately after labelling, these platelets were then injected back into the animal and allowed to circulate for 24 hours. Immediately before the start of the study, fibrinogen that had been isolated from the animal and labelled with iodine-131 (DuPont Nuclear, Boston, Mass.) was also injected back into the animal. Also at this time, baseline determinations of the clotting and template bleeding times were made, and blood samples were drawn for hematology studies.
To establish the ex vivo shunt, the femoral artery and vein were percutaneously cannulated with introducer catheters (KMA Inc., Mansfield, Mass.). […]
Platelet deposition onto the grafts was monitored by dynamic scanning with a gamma camera (Sigma 400, Ohio Nuclear, Inc., Sohon, Ohio), which detects the gamma radiation emitted by the ^111 indium-labelled platelets. […]

With RGD(O-Me-Y)RE-NH2 [21I] the “reactivity relative to 8X in platelet aggregation” value (platelets [1]) was “about three-fold”.

In the case of FRGDSPDG, the IC50 [2] is reported as 0.04 µM.

Substance LRGDSPDG has an IC50 [2] of 0.2 µM.

With Ac--CNPRGD(Y--OMe)RCNH2 [8X] the “differential inhibition of ligand binding to GP IIb/IIIa” value (GP IIb/IIIa) was “inhibits the binding of fibrinogen to GP IIb/IIIa more than it inhibits the binding of fibronectin and vitronectin to the same integrin”.

YRGDSPDG gave an IC50 [2] of 0.08 µM.

With R2 (Pen)GRGDTPCA the IC50 (platelets [3]) was 2.7 µM and the IC50 (platelets [4]) was 8.2 µM.

For R(Pen GRGDWPCR [4R], the “coronary thrombosis, time to full occlusion” value (coronary thrombosis; 3 mg/kg) was “ineffective”, the “reduction of ex vivo aggregation relative to control levels” value (platelets [5]; one hour) was 20-58% and the “reduction of ex vivo aggregation relative to control levels” value (platelets [5]; three and five hours) was 75-100% and 72-100%. For the same substance, the “ex vivo platelet aggregation by all three stimuli” value (platelets [5]) was “unresponsive to all modes of stimulation at all time points” and the IC50 (platelets [3]) was 0.53 µM.

In the case of (Mpr)RGD(O-Me-Y)RC-NH2 [16A], the “reactivity relative to 8X in platelet aggregation” value (platelets [1]) is reported as “about two-fold”.

In the case of R(Pen)GHRGDWRCR [4Q], the PBF [6] is reported as 9 units, the “ex vivo platelet activation by collagen” value (platelets [5]; 5 mg/kg) is reported as “near-maximal inhibition” and the “ex vivo platelet response to ADP and AA” value (platelets [5]; 5 mg/kg, all three time points) is reported as “completely unresponsive”. The “ex vivo platelet aggregation by all three stimuli” value (platelets [5]) was “prevented platelet aggregation by all three stimuli”.

For VRGDSPDG, the IC50 [2] was 0.24 µM.

In the case of G(Pen)GHRGDLRCA [2G], the “coronary thrombosis, time to full occlusion” value (coronary thrombosis; 10 mg/kg) is reported as “did not significantly influence”, the “ex vivo platelet aggregation response” value (platelets [7]) is reported as “completely unresponsive” and the “ex vivo ADP-stimulated aggregation” value (platelets [5]; 10 mg/kg, 1, 3 and 5 h) is reported as “substantially inhibited”. The “reduction in labelled fibrinogen uptake by graft” value [8] was 78% and the “reduction in labelled platelet uptake by graft” value [8] was 84%.

In the case of GNPRGD(O-Me-Y)RD-NH2 [20Q], the “potency relative to 17J” value (platelets [1]; times more potent than 17J) is reported as “about three” and the “potency relative to 18J” value (platelets [1]; times more potent than 18J) is reported as “about 20”.
